Laboratory results taken from PubChem BioAssay (NCI).
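Exposure lasted 48 hours, with cells grown in 96-well plates and compounds tested at five concentrations. GI50: concentration for 50% inhibition of growth. The concentration for full growth arrest is given as TGI.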

Tests used:
Assay in all cases: NCI anticancer screen, dose series, 48 h; in the data active = GI50 below about 0.43 µM; inactive = the rest
HOP-92 NSCLC = test system: HOP-92 NSCLC
A549 NSCLC = test system: A549 NSCLC
HL-60(TB) leukemia = test system: HL-60(TB) leukemia
CAKI-1 renal = test system: CAKI-1 renal
ACHN renal = test system: ACHN renal
T-47D breast = test system: T-47D breast
CCRF-CEM leukemia = test system: CCRF-CEM leukemia
SNB-19 CNS = test system: SNB-19 CNS
HCT-15 colon = test system: HCT-15 colon
MDA-MB-231 breast = test system: MDA-MB-231 breast
IGROV1 ovarian = test system: IGROV1 ovarian
UO-31 renal = test system: UO-31 renal
PC-3 prostate = test system: PC-3 prostate
HCC-2998 colon = test system: HCC-2998 colon
M14 melanoma = test system: M14 melanoma
MCF7 breast = test system: MCF7 breast
HCT-116 colon = test system: HCT-116 colon
HS 578T breast = test system: HS 578T breast
SK-MEL-28 melanoma = test system: SK-MEL-28 melanoma
COLO 205 colon = test system: COLO 205 colon
NCI-H522 lung = test system: NCI-H522 lung
SF-268 CNS = test system: SF-268 CNS
SR leukemia = test system: SR leukemia
SK-MEL-5 melanoma = test system: SK-MEL-5 melanoma
MALME-3M melanoma = test system: MALME-3M melanoma
786-0 renal = test system: 786-0 renal
SN12C renal = test system: SN12C renal
K-562 leukemia = test system: K-562 leukemia
SF-295 CNS = test system: SF-295 CNS
NCI/ADR-RES ovarian = test system: NCI/ADR-RES ovarian
NCI-H23 lung = test system: NCI-H23 lung
SK-MEL-2 melanoma = test system: SK-MEL-2 melanoma
OVCAR-4 ovarian = test system: OVCAR-4 ovarian
SK-OV-3 ovarian = test system: SK-OV-3 ovarian
SNB-75 CNS = test system: SNB-75 CNS
DU-145 prostate = test system: DU-145 prostate
BT-549 breast = test system: BT-549 breast
HT29 colon = test system: HT29 colon
TK-10 renal = test system: TK-10 renal
NCI-H226 lung = test system: NCI-H226 lung
OVCAR-8 ovarian = test system: OVCAR-8 ovarian
SW-620 colon = test system: SW-620 colon
U251 CNS = test system: U251 CNS
UACC-62 melanoma = test system: UACC-62 melanoma
A498 renal = test system: A498 renal
MDA-MB-435 = test system: MDA-MB-435
KM12 colon = test system: KM12 colon
UACC-257 melanoma = test system: UACC-257 melanoma
NCI-H460 lung = test system: NCI-H460 lung
EKVX NSCLC = test system: EKVX NSCLC
LOX IMVI melanoma = test system: LOX IMVI melanoma
MOLT-4 leukemia = test system: MOLT-4 leukemia
OVCAR-5 ovarian = test system: OVCAR-5 ovarian
RXF 393 renal = test system: RXF 393 renal
RPMI-8226 leukemia = test system: RPMI-8226 leukemia
OVCAR-3 ovarian = test system: OVCAR-3 ovarian
HOP-62 NSCLC = test system: HOP-62 NSCLC
SF-539 CNS = test system: SF-539 CNS

COc1ccc(CC2c3cc(OC)c(OC)c(OC)c3CC[N+]2(C)C)cc1Oc1ccc(CC2c3cc4c(c(OC)c3CC[N+]2(C)C)OCO4)cc1 (stereo unspecified)
> 100 µM: TGI (HOP-92 NSCLC) | TGI (A549 NSCLC) | TGI (HL-60(TB) leukemia) | TGI (CAKI-1 renal) | TGI (ACHN renal) | TGI (T-47D breast) | TGI (CCRF-CEM leukemia) | TGI (SNB-19 CNS) | TGI (HCT-15 colon) | TGI (MDA-MB-231 breast) | TGI (IGROV1 ovarian) | TGI (UO-31 renal) | TGI (PC-3 prostate) | TGI (HCC-2998 colon) | TGI (M14 melanoma) | TGI (MCF7 breast) | TGI (HCT-116 colon) | TGI (HS 578T breast) | TGI (SK-MEL-28 melanoma) | TGI (COLO 205 colon) | TGI (NCI-H522 lung) | TGI (SF-268 CNS) | TGI (SR leukemia) | TGI (SK-MEL-5 melanoma) | TGI (MALME-3M melanoma) | TGI (786-0 renal) | TGI (SN12C renal) | TGI (K-562 leukemia) | TGI (SF-295 CNS) | TGI (NCI/ADR-RES ovarian) | TGI (NCI-H23 lung) | TGI (SK-MEL-2 melanoma) | TGI (OVCAR-4 ovarian) | TGI (SK-OV-3 ovarian) | TGI (SNB-75 CNS) | TGI (DU-145 prostate) | TGI (BT-549 breast) | TGI (HT29 colon) | TGI (TK-10 renal) | TGI (NCI-H226 lung) | TGI (OVCAR-8 ovarian) | TGI (SW-620 colon) | TGI (U251 CNS) | TGI (UACC-62 melanoma) | TGI (A498 renal) | TGI (MDA-MB-435) | TGI (KM12 colon) | TGI (UACC-257 melanoma) | TGI (NCI-H460 lung) | TGI (EKVX NSCLC) | TGI (LOX IMVI melanoma) | TGI (MOLT-4 leukemia) | TGI (OVCAR-5 ovarian)

CCN(CC)CCCC(C)Nc1cc(-c2ccc(C(F)(F)F)cc2)c(C#N)c2nc3ccccc3n12 (stereo unspecified)
3.54 µM: TGI (MALME-3M melanoma)
3.16 µM: TGI (BT-549 breast)
12.5 µM: TGI (CAKI-1 renal)
4.44 µM: TGI (NCI/ADR-RES ovarian)
5.22 µM: TGI (RPMI-8226 leukemia)
2.06 µM: TGI (HCT-116 colon)
11.4 µM: TGI (DU-145 prostate)
3.43 µM: TGI (HOP-92 NSCLC)
4.75 µM: TGI (SK-OV-3 ovarian)
3.68 µM: TGI (OVCAR-3 ovarian)
> 100 µM: TGI (CCRF-CEM leukemia)
2.96 µM: TGI (RXF 393 renal)
4.15 µM: TGI (SK-MEL-2 melanoma)
3.67 µM: TGI (HCC-2998 colon)
3.57 µM: TGI (SF-295 CNS)
7.18 µM: TGI (HOP-62 NSCLC)
5.51 µM: TGI (OVCAR-8 ovarian)
4.03 µM: TGI (HCT-15 colon)
3.75 µM: TGI (UACC-257 melanoma)
5.45 µM: TGI (T-47D breast)
5.58 µM: TGI (HT29 colon)
4.43 µM: TGI (SF-268 CNS)
5.82 µM: TGI (EKVX NSCLC)
5.29 µM: TGI (TK-10 renal)
2.87 µM: TGI (ACHN renal) | TGI (UO-31 renal)
1.19 µM: TGI (SK-MEL-28 melanoma)
inactive: GI50 (HOP-92 NSCLC) 1.66 µM | GI50 (A549 NSCLC) 3.44 µM | GI50 (HL-60(TB) leukemia) 2.1 µM | GI50 (CAKI-1 renal) 2.89 µM | GI50 (ACHN renal) 1.38 µM | GI50 (T-47D breast) 2.23 µM | GI50 (CCRF-CEM leukemia) 0.846 µM | GI50 (SNB-19 CNS) 2.96 µM | GI50 (HCT-15 colon) 1.88 µM | GI50 (MDA-MB-231 breast) 1.58 µM | GI50 (UO-31 renal) 1.41 µM | GI50 (PC-3 prostate) 2.06 µM | GI50 (HCC-2998 colon) 1.91 µM | GI50 (M14 melanoma) 1.81 µM | GI50 (MCF7 breast) 2.1 µM | GI50 (HCT-116 colon) 0.687 µM | GI50 (HS 578T breast) 1.82 µM | GI50 (SF-268 CNS) 1.9 µM | GI50 (SR leukemia) 2.16 µM | GI50 (MALME-3M melanoma) 1.83 µM | GI50 (786-0 renal) 1.51 µM | GI50 (SF-295 CNS) 1.89 µM | GI50 (NCI/ADR-RES ovarian) 1.98 µM | GI50 (NCI-H23 lung) 1.86 µM | GI50 (SK-MEL-2 melanoma) 2.27 µM | GI50 (OVCAR-4 ovarian) 3.12 µM | GI50 (SK-OV-3 ovarian) 2.22 µM | GI50 (DU-145 prostate) 3.55 µM | GI50 (BT-549 breast) 1.6 µM | GI50 (HT29 colon) 2.38 µM | GI50 (RXF 393 renal) 1.4 µM | GI50 (TK-10 renal) 2.49 µM | GI50 (OVCAR-8 ovarian) 2.41 µM | GI50 (SW-620 colon) 1.92 µM | GI50 (U251 CNS) 2.04 µM | GI50 (RPMI-8226 leukemia) 1.96 µM | GI50 (UACC-62 melanoma) 1.72 µM | GI50 (A498 renal) 1.47 µM | GI50 (OVCAR-3 ovarian) 1.84 µM | GI50 (MDA-MB-435) 1.67 µM | GI50 (KM12 colon) 3.29 µM | GI50 (UACC-257 melanoma) 2.08 µM | GI50 (NCI-H460 lung) 1.82 µM | GI50 (HOP-62 NSCLC) 2.2 µM | GI50 (EKVX NSCLC) 2.29 µM | GI50 (MOLT-4 leukemia) 3.19 µM | GI50 (OVCAR-5 ovarian) 2.29 µM
3.38 µM: TGI (UACC-62 melanoma)
4.26 µM: TGI (PC-3 prostate)
4.16 µM: TGI (U251 CNS)
2.93 µM: TGI (786-0 renal)
12.1 µM: TGI (MOLT-4 leukemia)
2.9 µM: TGI (A498 renal)
12.6 µM: TGI (KM12 colon)
3.37 µM: TGI (M14 melanoma)
10.9 µM: TGI (A549 NSCLC)
11.1 µM: TGI (SNB-19 CNS)
4.22 µM: TGI (NCI-H23 lung)
3.14 µM: TGI (MDA-MB-435)
4.98 µM: TGI (HL-60(TB) leukemia)
3.42 µM: TGI (MDA-MB-231 breast)
10.1 µM: TGI (OVCAR-4 ovarian)
4.86 µM: TGI (HS 578T breast)
4.88 µM: TGI (MCF7 breast)
5.91 µM: TGI (SR leukemia)
3.61 µM: TGI (NCI-H460 lung)
5.15 µM: TGI (OVCAR-5 ovarian)
3.99 µM: TGI (SW-620 colon)
active: GI50 (SK-MEL-28 melanoma) 0.325 µM

Cc1cccc(NC(=S)Nc2ccc([N+](=O)[O-])cc2)n1
> 100 µM: TGI (HOP-92 NSCLC) | TGI (HL-60(TB) leukemia) | TGI (CAKI-1 renal) | TGI (ACHN renal) | TGI (T-47D breast) | TGI (CCRF-CEM leukemia) | TGI (SNB-19 CNS) | TGI (HCT-15 colon) | TGI (MDA-MB-231 breast) | TGI (IGROV1 ovarian) | TGI (UO-31 renal) | TGI (PC-3 prostate) | TGI (HCC-2998 colon) | TGI (M14 melanoma) | TGI (MCF7 breast) | TGI (HCT-116 colon) | TGI (HS 578T breast) | TGI (SK-MEL-28 melanoma) | TGI (COLO 205 colon) | TGI (SF-268 CNS) | TGI (SR leukemia) | TGI (SK-MEL-5 melanoma) | TGI (786-0 renal) | TGI (K-562 leukemia) | TGI (SF-295 CNS) | TGI (NCI/ADR-RES ovarian) | TGI (NCI-H23 lung) | TGI (SK-MEL-2 melanoma) | TGI (OVCAR-4 ovarian) | TGI (SK-OV-3 ovarian) | TGI (SNB-75 CNS) | TGI (DU-145 prostate) | TGI (BT-549 breast) | TGI (HT29 colon) | TGI (RXF 393 renal) | TGI (TK-10 renal) | TGI (SF-539 CNS) | TGI (NCI-H226 lung) | TGI (OVCAR-8 ovarian) | TGI (SW-620 colon) | TGI (U251 CNS) | TGI (RPMI-8226 leukemia) | TGI (UACC-62 melanoma) | TGI (A498 renal) | TGI (MDA-MB-435) | TGI (KM12 colon) | TGI (UACC-257 melanoma) | TGI (NCI-H460 lung) | TGI (HOP-62 NSCLC) | TGI (EKVX NSCLC) | TGI (LOX IMVI melanoma) | TGI (MOLT-4 leukemia)
